Laboratory results: patent US9249151B2, “Bis-amido pyridines” (Boehringer Ingelheim International GmbH, priority 2013, dated 2016)

Biological target: BIR3 domain of human cIAP1 (amino acids 256 to 363; cIAP1 BIR3) (Homo sapiens (Human), UniProt Q13490)
Test: cIAP1 BIR3 binding assay (DELFIA)
Settings: not given
Procedure: XIAP BIR3 and cIAP1 BIR3 Binding Assays (DELFIA)
Peptide […]-Lys(Biotin), representing the N-terminus of mature human SMAC (SMAC peptide), was used as interaction partner in the protein-peptide interaction assay.
BIR3 domains (10 nM) were incubated with SMAC peptide (10 nM) in assay buffer (50 mM Tris, 120 mM NaCl, 0.1% BSA, 1 mM DTT, 0.05% TritonX100) for one hour at room temperature in the presence of inhibitory compounds. The assay mixture was transferred to a streptavidin coated plate and incubated for one hour at room temperature to allow binding of the biotinylated peptide and associated BIR3 domains to the plate. After several washing steps Eu labeled anti-GST antibody (e.g. Perkin Elmer DELFIA Eu-N1-antiGST AD0250) was added to detect BIR3 domain-SMAC peptide interactions m according to Perkin Elmer's instructions. […] Time resolved Europium fluoresecence was measured in a Wallac Victor using Standard assay settings.
DELFIA assay results were plotted against compound concentrations and Software GraphPad Prizm was used to calculate half maximal inhibitory concentrations (IC50 values).

BIR3 domain of human cIAP1 (amino acids 256 to 363; cIAP1 BIR3), sequence (Q13490 256-363): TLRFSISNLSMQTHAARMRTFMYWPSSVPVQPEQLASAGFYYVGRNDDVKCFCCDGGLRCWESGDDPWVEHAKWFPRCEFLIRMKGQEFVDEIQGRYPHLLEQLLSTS

SMILES | IC50 [nM]
CNC(C)C(=O)Nc1cc(-c2ncnc3cccc(C)c23)cc(NC(=O)c2ccc(Cl)cn2)n1 (stereo not drawn) [Example 9, 5-chloro-N-{6-[2-(methylamino)propanamido]-4-(5-methylquinazolin-4-yl)pyridin-2-yl}pyridine-2-carboxamide] | 1
CNC(C)C(=O)Nc1cc(-c2c(OC)ccc3cc(C#N)ccc23)cc(NC(=O)c2ccc(Cl)cn2)n1 (stereo not drawn) [Example 25, 5-chloro-N-[4-(6-cyano-2-methoxynaphihalen-1-yl)-6-[2-(methylamino)propanamido]-pyridin-2-yl]pyridine-2-carboxamide] | 47

Same assay, conditions: BIR3 domain 10 nM, SMAC peptide 10 nM; values represent the (S)-isomers; * = racemic compound; read-out: cIAP1 BIR-3 IC50

IC50 [nM] | SMILES
3 | CNC(C)C(=O)Nc1cc(-c2nccc3c(=O)n(C)n(C)c23)cc(NC(=O)c2ccc(Cl)cn2)n1 (racemic) [Example 58, 5-chloro-N-(4-{1,2-dimethyl-3-oxo-1H,2H,3H-pyrazolo-[3,4-c]pyridin-7-yl}-6-[2-(methylamino)propanamido]-pyridin-2-yl)pyridine-2-carboxamide]
1 | CNC(C)C(=O)Nc1cc(-c2nc(C)nc3c(C)nn(C)c23)cc(NC(=O)c2ccc(Cl)cn2)n1 (stereo not drawn) [Example 21, 5-chloro-N-{6-[2-(methylamino)propanamido]-4-{trimethyl-1H-pyrazolo[4,3-d]pyrimidin-7-yl}pyridin-2-yl}pyridine-2-carboxamide]
1 | CNC(C)C(=O)Nc1cc(-c2ncnc3cccc(Cl)c23)cc(NC(=O)c2ccc(Cl)cn2)n1 (stereo not drawn) [Example 22, 5-chloro-N-[4-(5-chloroquinazolin-4-yl)-6-[2-(methylamino)propanamido]-pyridin-2-yl]pyridine-2-carboxamide]
8 | CNC(C)C(=O)Nc1cc(-c2ccnc3cc(F)cc(F)c23)cc(NC(=O)c2ccc(Cl)cn2)n1 (stereo not drawn) [Example 23, 5-chloro-N-[4-(5,7-difluoroquinolin-4-yl)-6-[2-(methylamino)propanamido]-pyridin-2-yl]pyridine-2-carboxamide]
1 | CNC(C)C(=O)Nc1cc(-c2c(OC)ccc3nccc(C)c23)cc(NC(=O)c2ccc(Cl)cn2)n1 (stereo not drawn) [Example 24, 5-chloro-N-[4-(6-methoxy-4-methylquinolin-5-yl)-6-[2-(methylamino)propanamido]-pyridin-2-yl]pyridine-2-carboxamide]
1 | CNC(C)C(=O)Nc1cc(-c2c(C)nc(C)c3c(=O)n(C)n(C)c23)cc(NC(=O)c2ccc(Cl)cn2)n1 (stereo not drawn) [Example 26, 5-chloro-N-{6-[2-(methylamino)propanamido]-4-{1,2,4,6-tetramethyl-3-oxo-1H,2H,3H-pyrazolo[4,3-c]pyridin-7-yl}pyridin-2-yl}pyridine-2-carboxamide]
18 | CNC(C)C(=O)Nc1cc(-c2c(Cl)c(C)nc3cc(Cl)cc(Cl)c23)cc(NC(=O)c2ccc(Cl)cn2)n1 (stereo not drawn) [Example 27, 5-chloro-N-{6-[2-(methylamino)propanamido]-4-(3,5,7-trichloro-2-methylquinolin-4-yl)pyridin-2-yl}pyridine-2-carboxamide]
31 | CNC(C)C(=O)Nc1cc(-c2c(C)ccc3ncccc23)cc(NC(=O)c2cc3c(cn2)COC3)n1 (stereo not drawn) [Example 28, N-{6-[2-(methylamino)propanamido]-4-(6-methylquinolin-5-yl)pyridin-2-yl}-1H,3H-furo[3,4-c]pyridine-6-carboxamide]
28 | CNC(C)C(=O)Nc1cc(-c2c(C)ccc3ncccc23)cc(NC(=O)c2ccc(C)cn2)n1 (stereo not drawn) [Example 29, 5-methyl-N-{6-[2-(methylamino)propanamido]-4-(6-methylquinolin-5-yl)pyridin-2-yl}pyridine-2-carboxamide]

Further lines, the molecule ahead of its results:

SMILES | IC50 [nM]
CNC(C)C(=O)Nc1cc(-c2ncnc3c(C)nn(C)c23)cc(NC(=O)c2ccc(Cl)cn2)n1 (stereo not drawn) [Example 1, 5-chloro-N-(4-{1,3-dimethyl-1H-pyrazolo[4,3-d]pyrimidin-7-yl}-6-[2-(methylamino)propanamido]pyridin-2-yl)pyridine-2-carboxamide] | 1
CNC(C)C(=O)Nc1cc(-c2ncnc3c(C)nn(C)c23)cc(NC(=O)c2cc3c(cn2)COC3)n1 (stereo not drawn) [Example 2, N-(4-{1,3-dimethyl-1H-pyrazolo[4,3-d]pyrimidin-7-yl}-6-[2-(methylamino)propanamido]-pyridin-2-yl)-1H,3H-furo[3,4-c]pyridine-6-carboxamide] | 2
CNC(C)C(=O)Nc1cc(-c2c(C)noc2C)cc(NC(=O)c2ccc(Cl)cn2)n1 (stereo not drawn) [Example 3, 5-chloro-N-[4-(dimethyl-1,2-oxazol-4-yl)-6-[2-(methylamino)propanamido]-pyridin-2-yl]pyridine-2-carboxamide] | 3
CNC(C)C(=O)Nc1cc(-c2ccncc2C#N)cc(NC(=O)c2ccc(Cl)cn2)n1 (stereo not drawn) [Example 4, 5-chloro-N-[4-(3-cyanopyridin-4-yl)-6-[2-(methylamino)propanamido]-pyridin-2-yl]pyridine-2-carboxamide] | 28
CNC(C)C(=O)Nc1cc(-c2c(C)ncnc2C)cc(NC(=O)c2ccc(Cl)cn2)n1 (stereo not drawn) [Example 5, 5-chloro-N-[4-(4,6-dimethylpyrimidin-5-yl)-6-[2-(methylamino)propanamido]-pyridin-2-yl]pyridine-2-carboxamide] | 5
CNC(C)C(=O)Nc1cc(-c2c(C)nc3ccccn23)cc(NC(=O)c2ccc(Cl)cn2)n1 (stereo not drawn) [Example 6, 5-chloro-N-{6-[2-(methylamino)propanamido]-4-{2-methylimidazo[1,2-a]pyridin-3-yl}pyridin-2-yl}pyridine-2-carboxamide] | 10
CNC(C)C(=O)Nc1cc(-c2cccc3cnn(C)c23)cc(NC(=O)c2ccc(Cl)cn2)n1 (stereo not drawn) [Example 7, 5-chloro-N-[4-(1-methyl-1H-indazol-7-yl)-6-[2-(methylamino)propanamido]-pyridin-2-yl]pyridine-2-carboxamide] | 3
CNC(C)C(=O)Nc1cc(-c2nccc3cccc(C)c23)cc(NC(=O)c2ccc(Cl)cn2)n1 (stereo not drawn) [Example 8, 5-chloro-N-{6-[2-(methylamino)propanamido]-4-(8-methylisoquinolin-1-yl)pyridin-2-yl}pyridine-2-carboxamide] | 1
CNC(C)C(=O)Nc1cc(-c2c(C)nc3cccc(C)n23)cc(NC(=O)c2ccc(Cl)cn2)n1 (stereo not drawn) [Example 10, 5-chloro-N-(4-{2,5-dimethylimidazo[1,2-a]pyridin-3-yl]-6-[2-(methylamino)propanamido]-pyridin-2-yl)pyridine-2-carboxamide] | 7
CNC(C)C(=O)Nc1cc(-c2cccc3nc(C)c(C)n23)cc(NC(=O)c2ccc(Cl)cn2)n1 (stereo not drawn) [Example 11] | 1
CNC(C)C(=O)Nc1cc(-c2cccc3nn(C)c(C)c23)cc(NC(=O)c2ccc(Cl)cn2)n1 (stereo not drawn) [Example 12, 5-chloro-N-[4-(2,3-dimethyl-2H-indazol-4-yl)-6-[2-(methylamino)propanamido]-pyridin-2-yl]pyridine-2-carboxamide] | 3
CNC(C)C(=O)Nc1cc(-c2cccc3c2c(C)nn3C)cc(NC(=O)c2ccc(Cl)cn2)n1 (stereo not drawn) [Example 13, 5-chloro-N-[4-(1,3-dimethyl-1H-indazol-4-yl)-6-[2-(methylamino)propanamido]-pyridin-2-yl]pyridine-2-carboxamide] | 2
CNC(C)C(=O)Nc1cc(-c2ncnc3cccc(F)c23)cc(NC(=O)c2ccc(Cl)cn2)n1 (stereo not drawn) [Example 14, 5-chloro-N-[4-(5-fluoroquinazolin-4-yl)-6-[2-(methylamino)propanamido]-pyridin-2-yl]pyridine-2-carboxamide] | 1
CNC(C)C(=O)Nc1cc(-c2ncnc3oc(C)c(C)c23)cc(NC(=O)c2ccc(Cl)cn2)n1 (stereo not drawn) [Example 15, 5-chloro-N-(4-{5,6-dimethylfuro[2,3-d]pyrimidin-4-yl}-6-[2-(methylamino)propanamido]-pyridin-2-yl)pyridine-2-carboxamide] | 1
CNC(C)C(=O)Nc1cc(-c2ncnc3nc(C)n(C)c23)cc(NC(=O)c2ccc(Cl)cn2)n1 (stereo not drawn) [Example 16, 5-chloro-N-[4-(7,8-dimethyl-7H-purin-6-yl)-6-[2-(methylamino)propanamido]-pyridin-2-yl]pyridine-2-carboxamide] | 1
CNC(C)C(=O)Nc1cc(-c2nn(C)c3ncnc(N)c23)cc(NC(=O)c2ccccn2)n1 (stereo not drawn) [Example 17, N-(4-{4-amino-1-methyl-1H-pyrazolo[3,4-d]pyrimidin-3-yl}-6-[2-(methylamino)propanamido]-pyridin-2-yl)pyridine-2-carboxamide] | 95
CNC(C)C(=O)Nc1cc(-c2cnc3cccc(Cl)n23)cc(NC(=O)c2ccc(Cl)cn2)n1 (stereo not drawn) [Example 18, 5-chloro-N-(4-{5-chloroimidazo[1,2-a]pyridin-3-yl}-6-[2-(methylamino)propanamido]-pyridin-2-yl)pyridine-2-carboxamide] | 1
CNC(C)C(=O)Nc1cc(-c2c(OC)ccc3ccccc23)cc(NC(=O)c2ccc(Cl)cn2)n1 (stereo not drawn) [Example 19, 5-chloro-N-[4-(2-methoxynaphthalen-1-yl)-6-[2-(methylamino)propanamido]-pyridin-2-yl]pyridine-2-carboxamide] | 225
CNC(C)C(=O)Nc1cc(-c2c(OC)ccc3nccnc23)cc(NC(=O)c2ccc(Cl)cn2)n1 (stereo not drawn) [Example 20, 5-chloro-N-[4-(6-methoxyquinoxalin-5-yl)-6-[2-(methylamino)propanamido]-pyridin-2-yl]pyridine-2-carboxamide] | 50
